Test results taken from patent US9408856B2, “Topical steroidal formulations” (Temple University—Of The Commonwealth System of Higher …, priority 2008, dated 2016).

Tests used:
[1] = tested on: dexamethasone-induced thymic and splenic atrophy; experiment: Dexamethasone-induced thymic and splenic atrophy in mice; format: in vivo, CD-1 mice; set-up: Thymus wt / Spleen wt: unit not given here; settings: for Approximate Potency Compared to Fluasterone in Protecting Against DEX-induced Thymic and Splenic Involution: fluasterone = 1
Experimental: Administration of dehydroepiandrosterone (DHEA, 60 mg/kg, s.c.) for three days partially reverse thymic and splenic atrophy induced by a single injection of dexamethasone (1.6 mg/mouse). In this experiment, the efficacy of either 10 mg/kg or 20 mg/kg DHEA administered s.c. versus the effect of 10 mg/kg or 20 mg/kg fluasterone was investigated.
5% Cremophor (polyethoxylated castor oil; Sigma Chemicals)-95% saline vehicle was prepared using 95 mL of sterile 0.9% NaCl (filtered through sterile 0.22 micron filter) and 5 mL of Cremophor. The Cremophor was dissolved by swirling for approximately 5 minutes.
Dexamethasone solutions were prepared by dissolving dexamethasone (Sigma Chemicals) in absolute ethanol. For example, 71.9 mg of dexamethasone was dissolved in 2.9 mL of absolute ethanol. In order to prevent precipitation, the solution was kept on a hotplate between injections.
For the 10 mg/kg suspension, 25.7 mg of DHEA was weighed out, transferred to a glass scintillation vial, and 10.3 mL of the Cremophor-saline vehicle was added. The DHEA suspension was homogenized using a Tissumizer at 80% power for 30 sec. The Tissumizer was rinsed with 70% ethanol prior to homogenization. After the 10 mg/kg DHEA suspension was homogenized the probe was rinsed 2× with 50 mL of absolute ethanol, then with 50 mL of 70% ethanol, and then dried with sterile gauze. For the 20 mg/kg DHEA suspension, 50.9 mg DHEA was suspended in 10.2 mL of Cremophor-saline vehicle.
19.4 mg of fluasterone was weighed out and transferred to a glass scintillation vial. 7.8 mL of Cremophor-saline vehicle was added to the vial and the contents of the vial were homogenized with a Tissumizer as described previously. Prior to preparing the 20 mg/kg fluasterone, the probe was rinsed 2× with 50 mL of absolute ethanol and 1× with 50 mL of 70% ethanol. For the 20 mg/kg suspension, 47.0 mg was weighed out and transferred to a glass scintillation vial. 9.4 mL of Cremophor-saline vehicle was added to the vial and the contents of the vial were homogenized with a Tissumizer as described above.
Female CD-1 mice, 43-45 days old, were obtained from Charles River Laboratories. The mice were housed 5 per cage in plastic shoebox cages with ad libitum access to Purina chow 5015 and water in the Pharmacy CAF with 12 hr of alternating light and darkness.
Prior to the experiment the mice were weighed, separated into 6 groups containing 5 mice each and treated as follows:
Mice were treated s.c. with 0.1 mL of 5% Cremophor-95% saline for three days. On the third day, the mice were also treated s.c. with 1.6 mg of dexamethasone dissolved in 0.06 mL of absolute. ethanol.
Mice were treated s.c. with 0.25 mg of DHEA suspended in 0.1 mL of 5% Cremophor-95% saline for three days. On the third day, the mice were also treated s.c. with 1.6 mg of dexamethasone dissolved in 0.06 mL of absolute ethanol.
Mice were treated s.c. with 0.5 mg of DHEA suspended in 0.1 mL of 5% Cremophor-95% saline for three days. On the third day, the mice were also treated s.c. with 1.6 mg of dexamethasone dissolved in 0.06 mL of absolute ethanol.
Mice were treated s.c. with 0.25 mg of fluasterone suspended in 0.1 mL of 5% Cremophor-95% saline for three days. On the third day, the mice were also treated s.c. with 1.6 mg of dexamethasone dissolved in 0.06 mL of absolute ethanol.
Mice were treated s.c. with 0.5 mg of fluasterone suspended in 0.1 mL of 5% Cremophor-95% saline for three days. On the third day, the mice were also treated s.c. with 1.6 mg of dexamethasone dissolved in 0.06 mL of absolute ethanol.
All s.c. injections were made in the nape. All mice were lightly anesthetized while the s.c. injections were done.
Twenty-four hours after dexamethasone treatment, the mice were euthanized by an overdose of isoflurane. The spleen and thymus were removed, cleaned of any adventitia, rinsed, blotted on filter paper, and weighed. […]

[2] = Fate of orally administered 14C-fluasterone
[3] = target: glucose 6-phosphate dehydrogenase (G6PDH) (Homo sapiens, UniProt P11413); settings: Schwartz et al., Cancer Res. 48:4817-4822, 1988; cited from earlier work
glucose 6-phosphate dehydrogenase (G6PDH), sequence (P11413 whole entry): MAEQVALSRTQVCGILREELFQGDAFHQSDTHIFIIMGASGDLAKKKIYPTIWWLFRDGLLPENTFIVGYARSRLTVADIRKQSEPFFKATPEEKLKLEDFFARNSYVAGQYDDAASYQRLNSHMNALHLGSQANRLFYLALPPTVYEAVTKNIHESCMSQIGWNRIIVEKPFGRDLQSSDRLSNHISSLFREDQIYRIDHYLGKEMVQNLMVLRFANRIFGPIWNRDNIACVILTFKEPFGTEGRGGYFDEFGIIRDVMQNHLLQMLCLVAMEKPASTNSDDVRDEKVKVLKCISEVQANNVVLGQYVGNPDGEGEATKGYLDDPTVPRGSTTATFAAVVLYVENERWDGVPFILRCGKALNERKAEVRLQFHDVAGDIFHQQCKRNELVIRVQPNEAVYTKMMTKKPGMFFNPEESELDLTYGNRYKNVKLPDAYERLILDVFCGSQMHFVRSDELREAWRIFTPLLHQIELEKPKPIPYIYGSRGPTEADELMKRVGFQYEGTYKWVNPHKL

[4] = Table 15, steroid 10 mg/kg in Cremophor-saline + dexamethasone
[5] = Table 15, steroid 20 mg/kg in Cremophor-saline + dexamethasone
[6] = Table 16, steroid 5 mg/kg + dexamethasone
[7] = Table 16, steroid 10 mg/kg + dexamethasone
[8] = Table 16, steroid 20 mg/kg + dexamethasone
[9] = Table 16, steroid 60 mg/kg + dexamethasone
[10] = Table 16, steroid 40 mg/kg + dexamethasone

SMILES: C[C@H]1CC[C@@]2(C)C(=CC[C@@H]3[C@@H]2CC[C@]2(C)C(=O)CC[C@@H]32)C1 [3β-methyl-5-androsten-17-one]
- Spleen wt [1, 4]: 70.7 + 4.5
- Spleen wt/BW [1, 4]: 2.9 + 0.2
- Thymus wt [1, 4]: 61.9 + 3.9
- Thymus wt/BW [1, 4]: 2.6 + 0.2
- Spleen wt [1, 5]: 67.0 ± 11.3
- Spleen wt/BW [1, 5]: 2.6 ± 0.2
- Thymus wt [1, 5]: 62.2 ± 4.1
- Thymus wt/BW [1, 5]: 2.4 ± 0.2
- Approximate Potency Compared to Fluasterone in Protecting Against DEX-induced Thymic and Splenic Involution ([1]; mice): slightly less active
- rank of activity among steroids tested against DEX-induced thymic and splenic involution ([1]; mice): almost as great potency

SMILES: C[C@H]1CC[C@@]2(C)C(=CC[C@@H]3[C@@H]2CC[C@]2(C)C(=O)[C@H](Cl)C[C@@H]32)C1 [3β-methyl-16α-chloro-5-androsten-17-one]
- Spleen wt [1, 4]: 42.3 ± 5.6
- Spleen wt/BW [1, 4]: 1.6 ± 0.2
- Thymus wt [1, 4]: 31.7 ± 4.1
- Thymus wt/BW [1, 4]: 1.2 ± 0.1
- Spleen wt [1, 5]: 38.6 ± 6.3
- Spleen wt/BW [1, 5]: 1.2 ± 0.3
- Thymus wt [1, 5]: 28.6 ± 3.2
- Thymus wt/BW [1, 5]: 1.1 ± 0.1
- Approximate Potency Compared to Fluasterone in Protecting Against DEX-induced Thymic and Splenic Involution ([1]; mice): about ⅙ or considerably

SMILES: C[C@H]1CC[C@@]2(C)C(=CC[C@@H]3[C@@H]2CC[C@]2(C)C(=O)[C@H](F)C[C@@H]32)C1 [3β-methyl-16α-fluoro-5-androsten-17-one]
- Spleen wt [1, 4]: 50.9 ± 7.5
- Spleen wt/BW [1, 4]: 2.0 ± 0.3
- Thymus wt [1, 4]: 43.8 ± 3.0
- Thymus wt/BW [1, 4]: 1.7 ± 0.1
- Spleen wt [1, 5]: 55.0 ± 4.6
- Spleen wt/BW [1, 5]: 2.2 ± 0.1
- Thymus wt [1, 5]: 55.8 ± 5.4
- Thymus wt/BW [1, 5]: 2.2 ± 0.2
- Approximate Potency Compared to Fluasterone in Protecting Against DEX-induced Thymic and Splenic Involution ([1]; mice): <½

SMILES: C[C@H]1CC[C@@]2(C)C(=CC[C@@H]3[C@@H]2CC[C@]2(C)C(=O)[C@H](C)C[C@@H]32)C1 [3β-methyl-16α-methyl-5-androsten-17-one]
- recovery from anesthesia (two mice of the group) ([1]; 20 mg/kg group, Example 9): never recovered from anesthesia
- Spleen wt [1, 4]: 44.9 + 9.2
- Spleen wt/BW [1, 4]: 1.7 + 0.3
- Thymus wt [1, 4]: 42.6 + 4.7
- Thymus wt/BW [1, 4]: 1.7 + 0.2
- Spleen wt [1, 5]: 44.4 ± 8.7
- Spleen wt/BW [1, 5]: 1.8 ± 0.3
- Thymus wt [1, 5]: 37.7 ± 4.0
- Thymus wt/BW [1, 5]: 1.5 ± 0.2
- Approximate Potency Compared to Fluasterone in Protecting Against DEX-induced Thymic and Splenic Involution ([1]; mice): about ⅙

SMILES: C[C@]12CCCCC1=C[C@@H](O)[C@@H]1[C@@H]2CC[C@]2(C)C(=O)[C@H](F)C[C@@H]12 [7α-hydroxyfluasterone, 7α-hydroxy-16α-fluoro-5-androsten-17-one]
- Body Weight [1, 6]: 24.5 ± 1.0
- Spleen wt [1, 6]: 46.3 ± 11.1
- Spleen wt/BW [1, 6]: 1.8 ± 0.5
- Thymus wt [1, 6]: 43.8 ± 6.9
- Thymus wt/BW [1, 6]: 1.8 ± 0.3
- Body Weight [1, 7]: 24.0 ± 1.3
- Spleen wt [1, 7]: 50.9 ± 12.5
- Spleen wt/BW [1, 7]: 2.1 ± 0.5
- Thymus wt [1, 7]: 54.8 ± 12.1
- Thymus wt/BW [1, 7]: 2.3 ± 0.4
- Approximate Potency Compared to Fluasterone in Protecting Against DEX-induced Thymic and Splenic Involution ([1]; mice): about ½

SMILES: C[C@]12CC[C@H]3[C@@H](CC=C4CCCC[C@@]43C)[C@@H]1C[C@@H](F)[C@@H]2O [16α-fluoro-5-androsten-17β-ol]
- Body Weight [1, 8]: 25.1 ± 1.0
- Spleen wt [1, 8]: 52.3 ± 10.8
- Spleen wt/BW [1, 8]: 2.1 ± 0.4
- Thymus wt [1, 8]: 42.3 ± 4.6
- Thymus wt/BW [1, 8]: 1.7 ± 0.2
- Body Weight [1, 9]: 25.7 ± 1.5
- Spleen wt [1, 9]: 45.9 ± 5.1
- Spleen wt/BW [1, 9]: 1.8 ± 0.2
- Thymus wt [1, 9]: 45.1 ± 5.1
- Thymus wt/BW [1, 9]: 1.8 ± 0.2
- Approximate Potency Compared to Fluasterone in Protecting Against DEX-induced Thymic and Splenic Involution ([1]; mice): < 1/12

SMILES: C[C@]12CCCCC1=CC[C@@H]1[C@@H]2CC[C@]2(C)C(=O)[C@H](O)C[C@@H]12 [16α-hydroxy-5-androsten-17-one]
- Body Weight [1, 8]: 25.4 ± 1.5
- Spleen wt [1, 8]: 46.6 ± 7.5
- Spleen wt/BW [1, 8]: 1.8 ± 0.2
- Thymus wt [1, 8]: 41.2 ± 1.3
- Thymus wt/BW [1, 8]: 1.6 ± 0.1
- Body Weight [1, 9]: 23.8 ± 0.8
- Spleen wt [1, 9]: 53.6 ± 6.3
- Spleen wt/BW [1, 9]: 2.2 ± 0.3
- Thymus wt [1, 9]: 45.9 ± 3.1
- Thymus wt/BW [1, 9]: 1.9 ± 0.2
- Approximate Potency Compared to Fluasterone in Protecting Against DEX-induced Thymic and Splenic Involution ([1]; mice): about 1/12

SMILES: C[C@@H]1C[C@H]2[C@@H]3CC=C4CCCC[C@]4(C)[C@H]3CC[C@]2(C)C1=O [16α-methyl-5-androsten-17-one]
- Body Weight [1, 4]: 25.3 ± 0.8
- Spleen wt [1, 4]: 37.8 ± 6.1
- Spleen wt/BW [1, 4]: 1.5 ± 0.3
- Thymus wt [1, 4]: 28.0 ± 1.7
- Thymus wt/BW [1, 4]: 1.1 ± 0.1
- Approximate Potency Compared to Fluasterone in Protecting Against DEX-induced Thymic and Splenic Involution ([1]; mice): about ⅙ or less

SMILES: C[C@@H]1C[C@H]2[C@@H]3CCC4=CC(=O)C=C[C@]4(C)[C@@]3(F)[C@@H](O)C[C@]2(C)[C@@]1(O)C(=O)CO [DEXAMETHASONE, dexamethasone, reference compound]
- Thymus wt ([1]; Table 12, dexamethasone 1.6 mg s.c. once after vehicle s.c. 3 days, 24 h after dexamethasone): 33.2 ± 1.3

SMILES: C[C@]12CCCCC1=CC[C@@H]1[C@@H]2CC[C@]2(C)C(=O)[C@H](F)C[C@@H]12 [^14C-Fluasterone]
- metabolism after oral administration [2]: extensive first-pass hepatic and/or gastrointestinal metabolism

SMILES: C[C@]12CCCC[C@@H]1CC[C@@H]1[C@@H]2CC[C@]2(C)C(=O)[C@H](F)C[C@@H]12 [compound 8356, 16α-fluoro-5α-androstan-17-one]
- G6PDH inhibition compared with fluasterone [3]: more potent G6PDH inhibitor than fluasterone
- Body Weight [1, 8]: 25.2 ± 2.9
- Spleen wt [1, 8]: 54.0 ± 4.5
- Spleen wt/BW [1, 8]: 2.0 ± 0.3
- Thymus wt [1, 8]: 40.8 ± 5.8
- Thymus wt/BW [1, 8]: 1.6 ± 0.1
- Body Weight [1, 10]: 25.2 ± 1.4
- Spleen wt [1, 10]: 51.2 ± 3.0
- Spleen wt/BW [1, 10]: 2.0 ± 0.2
- Thymus wt [1, 10]: 54.4 ± 4.5
- Thymus wt/BW [1, 10]: 2.2 ± 0.2
- Approximate Potency Compared to Fluasterone in Protecting Against DEX-induced Thymic and Splenic Involution ([1]; mice): about ⅛
